Source: patent US20200187502A1, “MICROBIOCIDAL OXADIAZOLE DERIVATIVES” (SYNGENTA PARTICIPATIONS AG, priority 2017, published 2020)

What was measured:
[1] = test system: Glomerella lacenarium (Colletotrichum lacenarium); assay: Fungicidal activity, liquid culture, cucumber preventative (anthracnose); assay type: cell-based; details: 20 ppm in the applied formulation, liquid culture in PDB, inhibition of growth measured photometrically 3 to 4 days after application, compared to untreated control, read-out: disease control
Outline: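 Test compound in DMSO is placed in a microtiter plate, then potato dextrose broth containing conidia from cryogenic storage is added. Incubation runs at 24° C., and growth inhibition is read photometrically after 3 to 4 days.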

Phakopsora pachyrhizi = assay: Fungicidal activity, soybean leaf disc preventative (Asian soybean rust); assay type: in vivo; details: foliar, 200 ppm in the applied formulation, soybean leaf disks, compared to untreated control, 12 to 14 days after application, read-out: disease control
Protocol: Leaf disks or leaf segments of various plant species are cut from plants grown in a greenhouse. The cut leaf disks or segments are placed in multiwell plates (24-well format) onto water agar. The leaf disks are sprayed with a test solution before (preventative) or after (curative) inoculation. Compounds to be tested are prepared as DMSO solutions (max. 10 mg/ml) which are diluted to the appropriate concentration with 0.025% Tween20 just before spraying. The inoculated leaf disks or segments are incubated under defined conditions (temperature, relative humidity, light, etc.) according to the respective test system. A single evaluation of disease level is carried out 3 to 14 days after inoculation, depending on the pathosystem. Percent disease control relative to the untreated check leaf disks or segments is then calculated.
Soybean leaf disks are placed on water agar in multiwell plates (24-well format) and sprayed with the formulated test compound diluted in water. One day after application leaf discs are inoculated by spraying a spore suspension on the lower leaf surface. After an incubation period in a climate cabinet of 24-36 hours in darkness at 20° C. and 75% rh leaf disc are kept at 20° C. with 12 h light/day and 75% rh. The activity of a compound is assessed as percent disease control compared to untreated when an appropriate level of disease damage appears in untreated check leaf disks (12 to 14 days after application).
The following compounds at 200 ppm in the applied formulation give at least 80% disease control in this test when compared to untreated control leaf disks under the same conditions, which show extensive disease development.

[2] = test system: Puccinia recondita f. Sp. Tritici; assay: Fungicidal activity, wheat leaf disc preventative (brown rust); assay type: in vivo; details: foliar, 200 ppm in the applied formulation, wheat leaf segments cv. Kanzler, compared to untreated control, 7 to 9 days after application, read-out: disease control
Outline: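 Preventative leaf-segment test: spray application of diluted formulated compound on wheat cv. Kanzler, spore inoculation after 1 day. Percent control relative to untreated segments rated 7 to 9 days post-application, with incubation at 19° C, 75% relative humidity, 12 h photoperiod.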

[3] = test system: Puccinia recondita f. Sp. Tritici; assay: Fungicidal activity, wheat leaf disc curative (brown rust); assay type: in vivo; details: foliar, 200 ppm in the applied formulation, wheat leaf segments cv. Kanzler, curative (applied 1 day after inoculation), compared to untreated control, 6 to 8 days after application, read-out: disease control
Outline: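 Segments of wheat (cultivar Kanzler) sit on agar and are spore-inoculated first; after one day in darkness at 19° C and 75% RH the diluted formulated compound is sprayed on. A 12 h photoperiod follows at the same temperature and humidity before disease is scored against untreated controls.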

Row | Structure (SMILES) | inhibition of growth at 20 ppm [1] | pest or weed control at 200 ppm (Phakopsora pachyrhizi) | pest or weed control at 200 ppm [2] | pest or weed control at 200 ppm [3]
1 | CON(Cc1ccc(-c2noc(C(F)(F)F)n2)s1)C(=O)C(C)C [Compound 1.26, N-methoxy-2-methyl-N-[[5-[5-(trifluoromethyl)-1,2,4-oxadiazol-3-yl]-2-thienyl]methyl]propanamide] | ≥ 80% | ≥ 80% | ≥ 80% | 
2 | CC(=O)NCC(=O)NCc1ccc(-c2noc(C(F)(F)F)n2)s1 [Compound 2.2, 2-acetamido-N-[[5-[5-(trifluoromethyl)-1,2,4-oxadiazol-3-yl]-2-thienyl]methyl]acetamide] |  | ≥ 80% |  | 
3 | CCN(Cc1ccc(-c2noc(C(F)(F)F)n2)s1)C(=O)COC [Compound 4.22, N-ethyl-2-methoxy-N-[[5-[5-(trifluoromethyl)-1,2,4-oxadiazol-3-yl]-2-thienyl]methyl]acetamide] | ≥ 80% | ≥ 80% | ≥ 80% | 
4 | O=C(N1CCCO1)N(Cc1ccc(-c2noc(C(F)(F)F)n2)s1)OCC(F)F [Compound 5.64, N-(2,2-difluoroethoxy)-N-[[5-[5-(trifluoromethyl)-1,2,4-oxadiazol-3-yl]-2-thienyl]methyl]isoxazolidine-2-carboxamide] | ≥ 80% |  | ≥ 80% | ≥ 80%
5 | CCN(Cc1ccc(-c2noc(C(F)(F)F)n2)s1)C(=O)C(C)=O [Compound 6.6, N-ethyl-2-oxo-N-[[5-[5-(trifluoromethyl)-1,2,4-oxadiazol-3-yl]-2-thienyl]methyl]propanamide] | ≥ 80% |  | ≥ 80% | ≥ 80%
6 | CC(=O)C(=O)N(C)Cc1ccc(-c2noc(C(F)(F)F)n2)s1 [Compound 6.8, N-methyl-2-oxo-N-[[5-[5-(trifluoromethyl)-1,2,4-oxadiazol-3-yl]-2-thienyl]methyl]propanamide] | ≥ 80% |  | ≥ 80% | ≥ 80%
7 | CC(C)N(Cc1ccc(-c2noc(C(F)(F)F)n2)s1)C(=O)C(N)=O [Compound 6.9, N′-isopropyl-N′-[[5-[5-(trifluoromethyl)-1,2,4-oxadiazol-3-yl]-2-thienyl]methyl]oxamide] | ≥ 80% |  | ≥ 80% | ≥ 80%
8 | CC(=O)C(=O)N(Cc1ccc(-c2noc(C(F)(F)F)n2)s1)C1CC1 [Compound 6.11, N-cyclopropyl-2-oxo-N-[[5-[5-(trifluoromethyl)-1,2,4-oxadiazol-3-yl]-2-thienyl]methyl]propanamide] | ≥ 80% |  | ≥ 80% | ≥ 80%
9 | CCN(Cc1ccc(-c2noc(C(F)(F)F)n2)s1)S(=O)(=O)CC [Compound 6.14, N-ethyl-N-[[5-[5-(trifluoromethyl)-1,2,4-oxadiazol-3-yl]-2-thienyl]methyl]ethanesulfonamide] | ≥ 80% | ≥ 80% |  | 
10 | CN(Cc1ccc(-c2noc(C(F)(F)F)n2)s1)S(C)(=O)=O [Compound 6.27, N-methyl-N-[[5-[5-(trifluoromethyl)-1,2,4-oxadiazol-3-yl]-2-thienyl]methyl]methanesulfonamide] | ≥ 80% |  | ≥ 80% | ≥ 80%
11 | CCN(Cc1ccc(-c2noc(C(F)(F)F)n2)s1)C(=O)C(=O)c1ccccc1 [Compound 6.40, N-ethyl-2-oxo-2-phenyl-N-[[5-[5-(trifluoromethyl)-1,2,4-oxadiazol-3-yl]-2-thienyl]methyl]acetamide] | ≥ 80% |  | ≥ 80% | ≥ 80%
12 | CCC(=O)C(=O)N(CC)Cc1ccc(-c2noc(C(F)(F)F)n2)s1 [Compound 6.42, N-ethyl-2-oxo-N-[[5-[5-(trifluoromethyl)-1,2,4-oxadiazol-3-yl]-2-thienyl]methyl]butanamide] | ≥ 80% |  | ≥ 80% | ≥ 80%
13 | CCN(Cc1ccc(-c2noc(C(F)(F)F)n2)s1)C(=O)C(=O)Cc1ccccc1 [Compound 6.43, N-ethyl-2-oxo-3-phenyl-N-[[5-[5-(trifluoromethyl)-1,2,4-oxadiazol-3-yl]-2-thienyl]methyl]propanamide] | ≥ 80% |  | ≥ 80% | ≥ 80%
14 | CCN(Cc1ccc(-c2noc(C(F)(F)F)n2)s1)C(=O)C(=O)c1ccco1 [Compound 6.46, N-ethyl-2-(2-furyl)-2-oxo-N-[[5-[5-(trifluoromethyl)-1,2,4-oxadiazol-3-yl]-2-thienyl]methyl]acetamide] | ≥ 80% |  | ≥ 80% | ≥ 80%
15 | CN(Cc1ccc(-c2noc(C(F)(F)F)n2)s1)C(=O)C(=O)c1ccccc1 [Compound 6.47, N-methyl-2-oxo-2-phenyl-N-[[5-[5-(trifluoromethyl)-1,2,4-oxadiazol-3-yl]-2-thienyl]methyl]acetamide] | ≥ 80% |  | ≥ 80% | ≥ 80%
16 | CN(Cc1ccc(-c2noc(C(F)(F)F)n2)s1)C(=O)C(=O)C(C)(C)C [Compound 6.48, N,3,3-trimethyl-2-oxo-N-[[5-[5-(trifluoromethyl)-1,2,4-oxadiazol-3-yl]-2-thienyl]methyl]butanamide] | ≥ 80% |  | ≥ 80% | ≥ 80%
17 | CCC(=O)C(=O)N(C)Cc1ccc(-c2noc(C(F)(F)F)n2)s1 [Compound 6.49, N-methyl-2-oxo-N-[[5-[5-(trifluoromethyl)-1,2,4-oxadiazol-3-yl]-2-thienyl]methyl]butanamide] | ≥ 80% |  | ≥ 80% | ≥ 80%
18 | CC(C)CC(=O)C(=O)N(C)Cc1ccc(-c2noc(C(F)(F)F)n2)s1 [Compound 6.51, N,4-dimethyl-2-oxo-N-[[5-[5-(trifluoromethyl)-1,2,4-oxadiazol-3-yl]-2-thienyl]methyl]pentanamide] | ≥ 80% |  | ≥ 80% | ≥ 80%
19 | CN(Cc1ccc(-c2noc(C(F)(F)F)n2)s1)C(=O)C(=O)c1cccs1 [Compound 6.52, N-methyl-2-oxo-2-(2-thienyl)-N-[[5-[5-(trifluoromethyl)-1,2,4-oxadiazol-3-yl]-2-thienyl]methyl]acetamide] | ≥ 80% |  | ≥ 80% | ≥ 80%
20 | CCC(=O)C(=O)N(Cc1ccc(-c2noc(C(F)(F)F)n2)s1)C1CC1 [Compound 6.56, N-cyclopropyl-2-oxo-N-[[5-[5-(trifluoromethyl)-1,2,4-oxadiazol-3-yl]-2-thienyl]methyl]butanamide] | ≥ 80% |  | ≥ 80% | ≥ 80%
21 | O=C(Cc1ccccc1)C(=O)N(Cc1ccc(-c2noc(C(F)(F)F)n2)s1)C1CC1 [Compound 6.57, N-cyclopropyl-2-oxo-3-phenyl-N-[[5-[5-(trifluoromethyl)-1,2,4-oxadiazol-3-yl]-2-thienyl]methyl]propanamide] | ≥ 80% |  | ≥ 80% | ≥ 80%
